# Measurements reported in US11046699B2, “Pyrazolo-pyrimidin-amino-cycloalkyl compounds and their therapeutic uses” (RAPT THERAPEUTICS, INC., priority 2018, dated 2021).
# Read-outs that look alike come from different tables or passages of the source.
# Molecular target: GCN2 (Homo sapiens, UniProt Q9P2K8)
# Test: GCN2 enzymatic endpoint assay: phosphorylation of GFP-eIF2α measured by TR-FRET (Lanthascreen)
# Type: biochemical
# In short: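 2 μM ATP, 80 nM GFP-eIF2α, RT, 90 min; EDTA stop. Tb-anti-phospho antibody TR-FRET read, 520/495 nm ratio.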
# [1] = tested as described in Example 77, compound and/or hydrochloride, dihydrochloride or trifluoroacetic acid salt, read-out: IC 50 Activity
# [2] = GCN2 biochemical IC50, 4 nM GCN2, 2 μM ATP, 80 nM GFP-eIF2α, 90 min RT, read-out: GCN2 activity
# GCN2, sequence (Q9P2K8 whole entry): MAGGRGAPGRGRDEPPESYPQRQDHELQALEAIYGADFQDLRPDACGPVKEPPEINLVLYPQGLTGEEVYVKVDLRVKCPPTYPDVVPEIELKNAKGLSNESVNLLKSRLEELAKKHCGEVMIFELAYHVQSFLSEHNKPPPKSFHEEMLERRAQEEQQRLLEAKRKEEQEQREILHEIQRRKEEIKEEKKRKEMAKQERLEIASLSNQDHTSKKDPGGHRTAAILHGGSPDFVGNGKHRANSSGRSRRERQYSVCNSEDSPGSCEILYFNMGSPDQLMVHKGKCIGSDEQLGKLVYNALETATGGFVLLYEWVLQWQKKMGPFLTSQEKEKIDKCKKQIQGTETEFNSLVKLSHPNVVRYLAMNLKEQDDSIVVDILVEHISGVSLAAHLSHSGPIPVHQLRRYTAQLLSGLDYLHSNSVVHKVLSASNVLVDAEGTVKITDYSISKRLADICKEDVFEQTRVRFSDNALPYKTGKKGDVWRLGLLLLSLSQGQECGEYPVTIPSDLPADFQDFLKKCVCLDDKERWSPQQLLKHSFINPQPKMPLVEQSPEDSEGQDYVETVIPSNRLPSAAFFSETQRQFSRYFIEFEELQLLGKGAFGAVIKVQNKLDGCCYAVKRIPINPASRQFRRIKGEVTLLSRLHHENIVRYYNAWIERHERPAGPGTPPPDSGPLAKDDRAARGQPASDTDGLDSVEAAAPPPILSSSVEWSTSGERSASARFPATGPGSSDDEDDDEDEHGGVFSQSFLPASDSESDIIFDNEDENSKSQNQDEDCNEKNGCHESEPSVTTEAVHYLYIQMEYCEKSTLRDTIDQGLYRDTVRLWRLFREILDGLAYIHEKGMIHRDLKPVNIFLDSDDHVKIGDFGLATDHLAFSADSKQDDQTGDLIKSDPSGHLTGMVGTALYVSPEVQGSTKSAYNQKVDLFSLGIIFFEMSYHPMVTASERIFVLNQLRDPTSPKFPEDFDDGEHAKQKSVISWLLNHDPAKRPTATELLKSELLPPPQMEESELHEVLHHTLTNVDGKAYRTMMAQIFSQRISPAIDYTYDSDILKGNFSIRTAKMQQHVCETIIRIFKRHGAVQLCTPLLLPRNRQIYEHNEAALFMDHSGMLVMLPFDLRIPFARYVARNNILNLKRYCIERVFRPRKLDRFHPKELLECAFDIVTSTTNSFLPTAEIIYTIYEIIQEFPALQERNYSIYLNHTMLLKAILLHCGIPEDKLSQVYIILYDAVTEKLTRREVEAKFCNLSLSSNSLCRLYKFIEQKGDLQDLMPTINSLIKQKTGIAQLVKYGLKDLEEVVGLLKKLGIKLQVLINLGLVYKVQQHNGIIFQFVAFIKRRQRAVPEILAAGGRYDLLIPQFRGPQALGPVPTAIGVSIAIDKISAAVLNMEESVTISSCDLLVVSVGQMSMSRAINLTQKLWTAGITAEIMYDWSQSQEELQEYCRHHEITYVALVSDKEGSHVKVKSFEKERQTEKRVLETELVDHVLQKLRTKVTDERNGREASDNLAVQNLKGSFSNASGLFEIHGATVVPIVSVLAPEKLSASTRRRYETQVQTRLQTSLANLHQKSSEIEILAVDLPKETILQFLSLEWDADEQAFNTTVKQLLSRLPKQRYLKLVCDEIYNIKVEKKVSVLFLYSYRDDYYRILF
Compound,IC50 [1],IC50 [2]
"CCC(=O)N1CCN(C(=O)[C@@H]2CC[C@@H](Nc3ncc4c(Br)nn(-c5cc(F)c6ncccc6c5)c4n3)C2)C1 [1-[3-[(1R,3R)-3-[[3-bromo-1-(8-fluoro-6-quinolyl)pyrazolo[3,4-d]pyrimidin-6-yl]amino]cyclopentanecarbonyl]imidazolidin-1-yl]propan-1-one]",< 0.025 µM,
"COC1(C)CN(C(=O)[C@]2(C)CC[C@@H](Nc3ncc4c(Br)nn(-c5cc(F)c6ncccc6c5)c4n3)C2)C1 [[(1R,3R)-3-[[3-bromo-1-(8-fluoro-6-quinolyl)pyrazolo[3,4-d]pyrimidin-6-yl]amino]-1-methyl-cyclopentyl]-(3-methoxy-3-methyl-azetidin-1-yl)methanone]",< 0.025 µM,
CNC(=O)[C@]1(C)CC[C@@H](Nc2ncc3c(Br)nn(-c4ccc5c(c4)S(=O)(=O)CC(=O)N5C)c3n2)C1,0.025 to 0.2 µM,
"Cc1nnc(-c2ccc(-n3nc(Br)c4cnc(N[C@@H]5CCOC5)nc43)cc2)s1 [3-bromo-1-[4-(5-methyl-1,3,4-thiadiazol-2-yl)phenyl]-N-[(3R)-tetrahydrofuran-3-yl] pyrazolo[3,4-d]pyrimidin-6-amine]",0.025 to 0.2 µM,
"CC1(CNC(=O)[C@@H]2CC[C@@H](Nc3ncc4c(Br)nn(-c5ccc6ncccc6c5)c4n3)C2)COC1 [(1R,3R)-3-((3-bromo-1-(quinolin-6-yl)-1H-pyrazolo[3,4-d]pyrimidin-6-yl)amino)-N-((3-methyloxetan-3-yl)methyl)cyclopentane-1-carboxamide]",0.2 to 0.5 µM,
"Fc1cc(-n2nc(Br)c3cnc(NC4COC4)nc32)cc2cccnc12 [3-bromo-1-(8-fluoro-6-quinolyl)-N-(oxetan-3-yl)pyrazolo[3,4-d]pyrimidin-6-amine]",0.025 to 0.2 µM,
"CNC(=O)[C@]1(C)CC[C@@H](Nc2ncc3c(Br)nn(-c4cc(CN)c5nccnc5c4)c3n2)C1 [(1R,3R)-3-[[1-[8-(aminomethyl)quinoxalin-6-yl]-3-bromo-pyrazolo[3,4-d]pyrimidin-6-yl]amino]-N,1-dimethyl-cyclopentane-carboxamide]",0.025 to 0.2 µM,
"C[C@@H]1C(=O)N(C)CCN1C(=O)[C@@H]1CC[C@@H](Nc2ncc3c(Br)nn(-c4cc(C#N)c5ncccc5c4)c3n2)C1 [6-(3-bromo-6-(((1R,3R)-3-((R)-2,4-dimethyl-3-oxopiperazine-1-carbonyl)cyclopentyl)amino)-1H-pyrazolo[3,4-d]pyrimidin-1-yl) quinoline-8-carbonitrile]",< 0.025 µM,
"CNC(=O)[C@]1(C)CC[C@@H](Nc2ncc3c(Br)nn(-c4cc(CNS(C)(=O)=O)c5ncccc5c4)c3n2)C1 [Example 33, (1R,3R)-3-((3-bromo-1-(8-(methylsulfonamidomethyl)quinolin-6-yl)-1H-pyrazolo[3,4-d]pyrimidin-6-yl)amino)-N,1-dimethylcyclopentane-1-carboxamide; 2,2,2-trifluoroacetic acid]",,< 0.025 µM
"CNC(=O)C1(C)CC[C@@H](Nc2ncc3c(Br)nn(-c4cc(C)cc(CO)c4)c3n2)C1 (stereo partly drawn) [(3R)-3-[[3-bromo-1-[3-(hydroxymethyl)-5-methyl-phenyl]pyrazolo[3,4-d]pyrimidin-6-yl]amino]-N,1-dimethyl-cyclopentanecarboxamide]",0.025 to 0.2 µM,
"CNC(=O)[C@]1(CC(F)F)CC[C@@H](Nc2ncc3c(Br)nn(-c4ccc(-c5cccnc5)c(C#N)c4)c3n2)C1 [(1R,3R)-3-[[3-bromo-1-[3-cyano-4-(3-pyridyl)phenyl]pyrazolo[3,4-d]pyrimidin-6-yl]amino]-1-(2,2-difluoroethyl)-N-methyl-cyclopentanecarboxamide]",0.025 to 0.2 µM,
"Cc1nnc(-c2ccc(-n3nc(Br)c4cnc(N[C@@H]5CC[C@@](C)(CO)C5)nc43)cc2)s1 [[(1R,3R)-3-[[3-bromo-1-[4-(5-methyl-1,3,4-thiadiazol-2-yl)phenyl]pyrazolo [3,4-d]pyrimidin-6-yl]amino]-1-methyl-cyclopentyl]methanol]",0.025 to 0.2 µM,
"CNC(=O)[C@]1(C)CC[C@@H](Nc2ncc3c(Br)nn(-c4ccc(-c5nnc(C)s5)c(CCC#N)c4)c3n2)C1 [Example 49, (1R,3R)-3-((3-bromo-1-(3-(2-cyanoethyl)-4-(5-methyl-1,3,4-thiadiazol-2-yl)phenyl)-1H-pyrazolo[3,4-d]pyrimidin-6-yl)amino)-N,1-dimethylcyclopentane-1-carboxamide]",,0.025 to 0.2 µM
"CNC(=O)[C@]1(CC(F)F)CC[C@@H](Nc2ncc3c(Br)nn(-c4cc(CCO)c5ncccc5c4)c3n2)C1 [(1R,3R)-3-[[3-bromo-1-[8-(2-hydroxyethyl)-6-quinolyl]pyrazolo[3,4-d]pyrimidin-6-yl]amino]-1-(2,2-difluoroethyl)-N-methyl-cyclo-pentanecarboxamide]",0.025 to 0.2 µM,
"Cc1nnc(-c2ccc(-n3nc(Br)c4cnc(N[C@@H]5CC[C@@](C)(C(=O)NC6CC6)C5)nc43)cc2)s1 [(1R,3R)-3-[[3-bromo-1-[4-(5-methyl-1,3,4-thiadiazol-2-yl)phenyl]pyrazolo[3,4-d]pyrimidin-6-yl]amino]-N-cyclopropyl-1-methyl-cyclopentanecarboxamide]",0.025 to 0.2 µM,
"O=C1CN(C(=O)[C@@H]2CC[C@@H](Nc3ncc4c(Br)nn(-c5cc(F)c6ncccc6c5)c4n3)C2)CC(=O)N1 [4-((1R,3R)-3-((3-bromo-1-(8-fluoroquinolin-6-yl)-1H-pyrazolo[3,4-d]pyrimidin-6-yl)amino)cyclopentane-1-carbonyl)piperazine-2,6-dione]",< 0.025 µM,
"COCCNC(=O)[C@@H]1CC[C@@H](Nc2ncc3c(Br)nn(-c4ccc(-c5ccncc5)cc4)c3n2)C1 [(1R,3R)-3-((3-bromo-1-(4-(pyridin-4-yl)phenyl)-1H-pyrazolo[3,4-d]pyrimidin-6-yl)amino)-N-(2-methoxyethyl)cyclopentane-1-carboxamide]",0.5 to 1 µM,
"CC(F)(F)CNC(=O)[C@@H]1CC[C@@H](Nc2ncc3c(Br)nn(-c4cc(C#N)c5ncccc5c4)c3n2)C1 [(1R,3R)-3-((3-bromo-1-(8-cyanoquinolin-6-yl)-1H-pyrazolo[3,4-d]pyrimidin-6-yl)amino)-N-(2,2-difluoropropyl)cyclopentane-1-carboxamide]",0.025 to 0.2 µM,
"CNC(=O)[C@]1(C)CC[C@@H](Nc2ncc3c(Br)nn(-c4ccc(OCCO)c(Cl)c4)c3n2)C1 [(1R,3R)-3-[[3-bromo-1-[3-chloro-4-(2-hydroxyethoxy)phenyl]pyrazolo [3,4-d]pyrimidin-6-yl]amino]-N,1-dimethyl-cyclopentanecarboxamide]",0.025 to 0.2 µM,
"CNC(=O)C1(C)CC[C@@H](Nc2ncc3c(Br)nn(-c4ccc5cnc(OC)cc5c4)c3n2)C1 (stereo partly drawn) [(3R)-3-[[3-bromo-1-(3-methoxy-6-isoquinolyl)pyrazolo[3,4-d]pyrimidin-6-yl]amino]-N,1-dimethyl-cyclopentane-carboxamide]",0.025 to 0.2 µM,
"CNC(=O)[C@]1(C)CC[C@@H](Nc2ncc3c(Br)nn(-c4ccc(-c5ncco5)c(NC(=O)[C@H]5CCNC5)c4)c3n2)C1 [(3S)-N-[5-[3-bromo-6-[[(1R,3R)-3-methyl-3-(methylcarbamoyl)cyclopentyl]amino]pyrazolo[3,4-d]pyrimidin-1-yl]-2-oxazol-2-yl-phenyl]pyrrolidine-3-carboxamide]",< 0.025 µM,
"CNC(=O)[C@]1(C)CC[C@@H](Nc2ncc3c(Br)nn(-c4ccc(OCC#N)cc4)c3n2)C1 [(1R,3R)-3-[[3-bromo-1-[4-(cyanomethoxy)phenyl]pyrazolo[3,4-d]pyrimidin-6-yl]amino]-N,1-dimethyl-cyclopentane-carboxamide]",0.025 to 0.2 µM,
"CNC(=O)[C@]1(C)CC[C@@H](Nc2ncc3c(Br)nn(-c4cc(/C=C/P(C)(C)=O)c5ncccc5c4)c3n2)C1 [(1R,3R)-3-[[3-bromo-1-[8-[(E)-2-dimethylphosphorylvinyl]-6-quinolyl]pyrazolo[3,4-d]pyrimidin-6-yl]amino]-N,1-dimethyl-cyclopentanecarboxamide]",0.025 to 0.2 µM,
"O=C([C@@H]1CC[C@@H](Nc2ncc3c(Br)nn(-c4ccc5ncccc5c4)c3n2)C1)N1CCNCC1 [((1R,3R)-3-((3-bromo-1-(quinolin-6-yl)-1H-pyrazolo[3,4-d]pyrimidin-6-yl)amino)cyclo-pentyl)(piperazin-1-yl)methanone]",0.025 to 0.2 µM,
"O=C1CN(C(=O)[C@@H]2CC[C@@H](Nc3ncc4c(Br)nn(-c5cc(F)c6ncccc6c5)c4n3)C2)CCN1 [4-((1R,3R)-3-((3-bromo-1-(8-fluoroquinolin-6-yl)-1H-pyrazolo[3,4-d]pyrimidin-6-yl)amino)cyclopentane-1-carbonyl)piperazin-2-one]",0.025 to 0.2 µM,
"CNC(=O)C[C@H]1C[C@H](Nc2ncc3c(Br)nn(-c4cc(Cl)cc([C@H](C)N)c4)c3n2)C1 [Example 71, 2-((1S,3r)-3-((1-(3-((S)-1-aminoethyl)-5-chlorophenyl)-3-bromo-1H-pyrazolo[3,4-d]pyrimidin-6-yl)amino)cyclobutyl)-N-methylacetamide]",,0.025 to 0.2 µM
"CNC(=O)[C@]1(C)CC[C@@H](Nc2ncc3c(Br)nn(-c4cc(CNCCC#N)c5ncccc5c4)c3n2)C1 [(1R,3R)-3-[[3-bromo-1-[8-[(2-cyanoethyl-amino)methyl]-6-quinolyl]pyrazolo[3,4-d]pyrimidin-6-yl]amino]-N,1-dimethyl-cyclopentanecarboxamide]",0.025 to 0.2 µM,
"Cc1ccc2cc(-n3nc(Br)c4cnc(N[C@@H]5CC[C@@H](P(C)(C)=O)C5)nc43)cc(CCO)c2n1 [2-[6-[3-bromo-6-[[(1R,3R)-3-dimethyl-phosphorylcyclopentyl]amino]pyrazolo [3,4-d]pyrimidin-1-yl]-2-methyl-8-quinolyl]ethanol]",0.025 to 0.2 µM,
"CNC(=O)[C@]1(C)CC[C@@H](Nc2ncc3c(Br)nn(-c4ccc(-c5nnc(C)o5)c(CO)c4)c3n2)C1 [Example 58, (1R,3R)-3-((3-bromo-1-(3-(hydroxymethyl)-4-(5-methyl-1,3,4-oxadiazol-2-yl)phenyl)-1H-pyrazolo[3,4-d]pyrimidin-6-yl)amino)-N,1-dimethylcyclopentane-1-carboxamide]",,0.025 to 0.2 µM
